Measurements published in the NIST ThermoML archive (doi:10.1021/acs.jced.5b00367).
Several values for one entry are separate records, joined by “and”; a condition that tells them apart may be missing. Equal entries are not always repeated.

Test: wn = mass fraction of the nth substance listed
Conditions: 101 kPa, Liquid, Alternating current cell with electrodes

CCCCCCCCCCCC[N+](C)(C)C.[Br-] [dodecyltrimethylammonium bromide] + O
w2 = 0.01
Conditions	electrical conductivity
279.15 K	0.186 S/m
279.25 K	0.186 S/m
279.35 K	0.186 S/m
279.45 K	0.186 S/m
279.55 K	0.186 S/m
279.65 K	0.186 S/m
279.85 K	0.186 S/m
279.95 K	0.186 S/m
280.05 K	0.186 S/m
280.15 K	0.186 S/m
280.25 K	0.186 S/m
280.35 K	0.186 S/m
280.45 K	0.186 S/m
280.55 K	0.186 S/m
280.65 K	0.186 S/m
280.75 K	0.185 S/m
280.85 K	0.185 S/m
280.95 K	0.185 S/m
281.05 K	0.185 S/m
281.15 K	0.185 S/m
281.25 K	0.185 S/m
281.35 K	0.185 S/m
281.45 K	0.185 S/m
281.55 K	0.185 S/m
281.65 K	0.185 S/m
281.85 K	0.185 S/m
281.95 K	0.185 S/m
282.05 K	0.185 S/m
282.15 K	0.185 S/m
282.25 K	0.185 S/m
282.35 K	0.184 S/m
282.45 K	0.184 S/m
282.55 K	0.184 S/m
282.65 K	0.184 S/m
282.75 K	0.184 S/m
282.85 K	0.184 S/m
282.95 K	0.184 S/m
283.05 K	0.184 S/m
283.15 K	0.184 S/m
283.25 K	0.184 S/m
283.35 K	0.184 S/m
283.45 K	0.184 S/m
283.55 K	0.184 S/m
283.65 K	0.184 S/m
283.75 K	0.184 S/m
283.85 K	0.184 S/m
283.95 K	0.184 S/m
284.05 K	0.183 S/m and 0.184 S/m
284.15 K	0.184 S/m
284.25 K	0.183 S/m
284.35 K	0.183 S/m
284.45 K	0.183 S/m
284.55 K	0.183 S/m
284.65 K	0.183 S/m
284.75 K	0.183 S/m
284.85 K	0.183 S/m
284.95 K	0.183 S/m
285.05 K	0.183 S/m
285.15 K	0.183 S/m
288.05 K	0.182 S/m
288.15 K	0.182 S/m
288.25 K	0.182 S/m
288.35 K	0.182 S/m
288.45 K	0.182 S/m
288.55 K	0.182 S/m
288.65 K	0.182 S/m
288.75 K	0.182 S/m
288.85 K	0.182 S/m
288.95 K	0.182 S/m
289.85 K	0.183 S/m
289.95 K	0.183 S/m
290.05 K	0.183 S/m
290.15 K	0.183 S/m
290.25 K	0.183 S/m
290.35 K	0.183 S/m
290.45 K	0.183 S/m
290.55 K	0.183 S/m
290.65 K	0.183 S/m
290.75 K	0.183 S/m
290.85 K	0.183 S/m
290.95 K	0.183 S/m
291.05 K	0.183 S/m
291.15 K	0.183 S/m
291.25 K	0.183 S/m
291.35 K	0.183 S/m
291.45 K	0.183 S/m
291.55 K	0.183 S/m
291.65 K	0.183 S/m
291.75 K	0.183 S/m
291.85 K	0.183 S/m
292.15 K	0.183 S/m
292.25 K	0.183 S/m
292.65 K	0.183 S/m
292.75 K	0.183 S/m
292.85 K	0.183 S/m
292.95 K	0.184 S/m
293.05 K	0.184 S/m
293.15 K	0.184 S/m
293.25 K	0.184 S/m
294.25 K	0.184 S/m
294.35 K	0.184 S/m
294.45 K	0.184 S/m
294.55 K	0.184 S/m
294.75 K	0.184 S/m
294.85 K	0.185 S/m
294.95 K	0.185 S/m
295.15 K	0.185 S/m
295.25 K	0.185 S/m
295.45 K	0.185 S/m
295.65 K	0.185 S/m
295.75 K	0.185 S/m
296.05 K	0.185 S/m
296.15 K	0.185 S/m
296.55 K	0.185 S/m
296.85 K	0.186 S/m
297.05 K	0.186 S/m
297.25 K	0.186 S/m
297.45 K	0.186 S/m
297.65 K	0.186 S/m
297.85 K	0.186 S/m
298.15 K	0.186 S/m
298.65 K	0.187 S/m
298.85 K	0.187 S/m
299.05 K	0.187 S/m
299.25 K	0.188 S/m
299.55 K	0.188 S/m
299.75 K	0.188 S/m
299.85 K	0.188 S/m
300.05 K	0.188 S/m
300.25 K	0.188 S/m
300.45 K	0.188 S/m
300.75 K	0.189 S/m
301.05 K	0.189 S/m
301.55 K	0.189 S/m
301.75 K	0.189 S/m
301.95 K	0.19 S/m
302.25 K	0.19 S/m
302.55 K	0.19 S/m
302.75 K	0.19 S/m
302.95 K	0.191 S/m
303.25 K	0.191 S/m
303.65 K	0.191 S/m
303.85 K	0.191 S/m
304.15 K	0.192 S/m
305.45 K	0.193 S/m
306.15 K	0.194 S/m
306.45 K	0.194 S/m
306.75 K	0.194 S/m
307.05 K	0.195 S/m
307.85 K	0.195 S/m
308.15 K	0.196 S/m
308.45 K	0.196 S/m
308.75 K	0.196 S/m
309.35 K	0.197 S/m
309.55 K	0.197 S/m
309.85 K	0.198 S/m
310.05 K	0.198 S/m
310.35 K	0.199 S/m
310.65 K	0.199 S/m
310.95 K	0.199 S/m
311.35 K	0.199 S/m

CCCCCCCCCCCCCCCC[N+](CC)(CC)CCCCCCCCCCCCCCCC.[Br-] [diethyldihexadecylammonium bromide] + O
w1 = 0.01
Conditions	electrical conductivity [S/m]
279.15 K	0.0018
279.25 K	0.00186
279.45 K	0.00186
279.55 K	0.00187
279.65 K	0.00187
279.85 K	0.00188
280.15 K	0.00189
280.35 K	0.00189
280.55 K	0.0019
280.65 K	0.0019
281.05 K	0.0019
281.15 K	0.00191
281.55 K	0.00191
281.85 K	0.00192
282.05 K	0.00192
282.25 K	0.00193
282.75 K	0.00194
283.05 K	0.00195
283.15 K	0.00195
283.45 K	0.00195
283.65 K	0.00195
283.85 K	0.00195
283.95 K	0.00195
284.15 K	0.00195
284.55 K	0.00197
284.75 K	0.00197
285.25 K	0.00197
285.45 K	0.00198
285.55 K	0.00198
285.75 K	0.00198
285.85 K	0.00198
286.15 K	0.00198
286.25 K	0.00198
286.55 K	0.00198
286.65 K	0.00198
289.15 K	0.002
290.15 K	0.00201
290.85 K	0.00202
291.45 K	0.00204
291.75 K	0.00205
292.05 K	0.00206
292.95 K	0.00207
295.55 K	0.00209
296.65 K	0.0021
297.65 K	0.00211
298.65 K	0.00212
299.45 K	0.00213
300.75 K	0.00214
301.25 K	0.00215
302.35 K	0.00216
303.05 K	0.00217
303.65 K	0.00219
304.05 K	0.0022
305.25 K	0.00226
305.55 K	0.00229
305.95 K	0.00235
306.45 K	0.00239
306.95 K	0.00247
307.35 K	0.00254
307.65 K	0.00264
307.95 K	0.0027
308.15 K	0.00278
308.45 K	0.00294
308.75 K	0.00294
308.95 K	0.00295
309.55 K	0.00296
310.25 K	0.00297
311.35 K	0.00299
312.45 K	0.00304
312.65 K	0.00305
313.55 K	0.00305
313.95 K	0.00308
314.15 K	0.00314
316.55 K	0.00319
317.25 K	0.00323
318.65 K	0.00322
318.75 K	0.00325
319.15 K	0.00326
320.75 K	0.00328
320.95 K	0.00331
321.05 K	0.00333
322.05 K	0.0034
322.15 K	0.0034
323.15 K	0.00347
